Measurements as given in publication PMC11249646, “Small-Molecule Disruptors of the Interaction between Calcium- and Integrin-Binding Protein 1 and Integrin αIIbβ3 as Novel Antiplatelet Agents” (ACS Pharmacology & Translational Science, 2024).

Molecular target: T1, GST-CIB1 : F-scrambled peptide (Homo sapiens, UniProt Q99828)
T1 construct: made in house; host or cells: BL-21 plus RIL cells (E. coli)
T1 sequence (Q99828 1-191): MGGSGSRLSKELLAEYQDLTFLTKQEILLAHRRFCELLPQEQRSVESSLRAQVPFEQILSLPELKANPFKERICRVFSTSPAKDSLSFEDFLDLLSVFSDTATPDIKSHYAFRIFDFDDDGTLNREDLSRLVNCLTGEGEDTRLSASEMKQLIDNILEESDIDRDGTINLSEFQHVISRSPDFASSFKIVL
Test: FP scrambled-peptide counter screen, 384-well format
Format: binding
Conditions: F-scrambled peptide

384-well COUNTERSCREEN Efficacy (%)	SMILES
15	CC(=O)N1CCN(c2ccc(OCc3nn(C)c(C)c3-c3cccc4c(CCCOc5cccc6ccccc56)c(C(=O)O)n(Cc5cccnc5)c34)cc2)CC1 [NCGC00347174-02]
32	Cc1c(C)n(Cc2ccc(-c3ccccc3C(=O)O)cc2)c2ccc(C(=O)N[C@@H](C)c3ccc([N+](=O)[O-])cc3)cc12 [NCGC00347955-04]

Same assay, conditions: F-scrambled peptide; *: Curve in opposite direction

384-well COUNTERSCREEN Confirm?	SMILES
YES	CC(=O)N1CCN(c2ccc(OCc3nn(C)c(C)c3-c3cccc4c(CCCOc5cccc6ccccc56)c(C(=O)O)n(Cc5cccnc5)c34)cc2)CC1 [NCGC00347174-02]
YES	Cc1c(C)n(Cc2ccc(-c3ccccc3C(=O)O)cc2)c2ccc(C(=O)N[C@@H](C)c3ccc([N+](=O)[O-])cc3)cc12 [NCGC00347955-04]

Same assay, conditions: F-scrambled peptide; read-out: 384-well COUNTERSCREEN IC50

IC50 [µM]	SMILES
> 120	CC(=O)N1CCN(c2ccc(OCc3nn(C)c(C)c3-c3cccc4c(CCCOc5cccc6ccccc56)c(C(=O)O)n(Cc5cccnc5)c34)cc2)CC1 [NCGC00347174-02]
> 120	Cc1c(C)n(Cc2ccc(-c3ccccc3C(=O)O)cc2)c2ccc(C(=O)N[C@@H](C)c3ccc([N+](=O)[O-])cc3)cc12 [NCGC00347955-04]

Molecular target: T2, CIB1 and αIIb interaction (GST-CIB1 : F-αIIb peptide) (Homo sapiens, UniProt Q99828)
T2 construct: made in house; host or cells: BL-21 plus RIL cells (E. coli)
T2 sequence (Q99828 1-191): T1 sequence (Q99828 1-191)
Test: FP assay, 384-well format (screen)
Format: binding
Design: 384-well SCREEN Efficacy (%): concentration or dose not given beside the values
Conditions: F-αIIb peptide

384-well SCREEN Efficacy (%)	SMILES
52	CC(=O)N1CCN(c2ccc(OCc3nn(C)c(C)c3-c3cccc4c(CCCOc5cccc6ccccc56)c(C(=O)O)n(Cc5cccnc5)c34)cc2)CC1 [NCGC00347174-02]
56	Cc1c(C)n(Cc2ccc(-c3ccccc3C(=O)O)cc2)c2ccc(C(=O)N[C@@H](C)c3ccc([N+](=O)[O-])cc3)cc12 [NCGC00347955-04]

Same assay, conditions: F-αIIb peptide; YES/NO

384-well SCREEN Confirm?	SMILES
YES	CC(=O)N1CCN(c2ccc(OCc3nn(C)c(C)c3-c3cccc4c(CCCOc5cccc6ccccc56)c(C(=O)O)n(Cc5cccnc5)c34)cc2)CC1 [NCGC00347174-02]
YES	Cc1c(C)n(Cc2ccc(-c3ccccc3C(=O)O)cc2)c2ccc(C(=O)N[C@@H](C)c3ccc([N+](=O)[O-])cc3)cc12 [NCGC00347955-04]

Same assay, conditions: F-αIIb peptide; read-out: 384-well SCREEN IC50

IC50 [µM]	SMILES
28.2	CC(=O)N1CCN(c2ccc(OCc3nn(C)c(C)c3-c3cccc4c(CCCOc5cccc6ccccc56)c(C(=O)O)n(Cc5cccnc5)c34)cc2)CC1 [NCGC00347174-02]
12.6	Cc1c(C)n(Cc2ccc(-c3ccccc3C(=O)O)cc2)c2ccc(C(=O)N[C@@H](C)c3ccc([N+](=O)[O-])cc3)cc12 [NCGC00347955-04]

Molecular target: T3, CIB1 and αIIb interaction (CIB1-GST : F-αIIb peptide) (Homo sapiens, UniProt Q99828)
T3 construct: made in house; host or cells: BL-21 plus RIL cells (E. coli)
T3 sequence (Q99828 1-191): T1 sequence (Q99828 1-191)
Test: FP assay, 1536-well qHTS format (primary and confirmatory screen)
Format: binding
Conditions: confirmatory screen, YES/NO call

CONFIRMATORY SCREEN Confirm?	SMILES
YES	CC(=O)N1CCN(c2ccc(OCc3nn(C)c(C)c3-c3cccc4c(CCCOc5cccc6ccccc56)c(C(=O)O)n(Cc5cccnc5)c34)cc2)CC1 [NCGC00347174-02]
YES	Cc1c(C)n(Cc2ccc(-c3ccccc3C(=O)O)cc2)c2ccc(C(=O)N[C@@H](C)c3ccc([N+](=O)[O-])cc3)cc12 [NCGC00347955-04]

Same assay, conditions: confirmatory screen, qHTS curve class; negative sign = inhibitory curve

CONFIRMATORY SCREEN Curve Class	SMILES
-2.2	CC(=O)N1CCN(c2ccc(OCc3nn(C)c(C)c3-c3cccc4c(CCCOc5cccc6ccccc56)c(C(=O)O)n(Cc5cccnc5)c34)cc2)CC1 [NCGC00347174-02]
-1.2	Cc1c(C)n(Cc2ccc(-c3ccccc3C(=O)O)cc2)c2ccc(C(=O)N[C@@H](C)c3ccc([N+](=O)[O-])cc3)cc12 [NCGC00347955-04]

Same assay, conditions: confirmatory screen; negative = inhibition

CONFIRMATORY SCREEN Efficacy (%)	SMILES
-77	CC(=O)N1CCN(c2ccc(OCc3nn(C)c(C)c3-c3cccc4c(CCCOc5cccc6ccccc56)c(C(=O)O)n(Cc5cccnc5)c34)cc2)CC1 [NCGC00347174-02]
-52	Cc1c(C)n(Cc2ccc(-c3ccccc3C(=O)O)cc2)c2ccc(C(=O)N[C@@H](C)c3ccc([N+](=O)[O-])cc3)cc12 [NCGC00347955-04]

Same assay, conditions: confirmatory screen; read-out: CONFIRMATORY SCREEN IC50

IC50 [µM]	SMILES
22.4	CC(=O)N1CCN(c2ccc(OCc3nn(C)c(C)c3-c3cccc4c(CCCOc5cccc6ccccc56)c(C(=O)O)n(Cc5cccnc5)c34)cc2)CC1 [NCGC00347174-02]
22.4	Cc1c(C)n(Cc2ccc(-c3ccccc3C(=O)O)cc2)c2ccc(C(=O)N[C@@H](C)c3ccc([N+](=O)[O-])cc3)cc12 [NCGC00347955-04]

Same assay, conditions: qHTS primary screen hits, Table S2; negative = inhibition

Efficacy (%)	SMILES
-31	CC(=O)N1CCN(c2ccc(OCc3nn(C)c(C)c3-c3cccc4c(CCCOc5cccc6ccccc56)c(C(=O)O)n(Cc5cccnc5)c34)cc2)CC1 [NCGC00347174-02]

Same assay, conditions: qHTS primary screen hits, Table S2; negative sign = inhibitory curve; several classes where COUNT > 1

Curve Class	SMILES
-2.4	CC(=O)N1CCN(c2ccc(OCc3nn(C)c(C)c3-c3cccc4c(CCCOc5cccc6ccccc56)c(C(=O)O)n(Cc5cccnc5)c34)cc2)CC1 [NCGC00347174-02]

Same assay, conditions: qHTS primary screen hits, Table S2; read-out: IC50

IC50 [µM]	SMILES
34.1	CC(=O)N1CCN(c2ccc(OCc3nn(C)c(C)c3-c3cccc4c(CCCOc5cccc6ccccc56)c(C(=O)O)n(Cc5cccnc5)c34)cc2)CC1 [NCGC00347174-02]

Molecular target: T1, GST-CIB1 : F-scrambled peptide
Test: FP scrambled-peptide counter screen, 1536-well format
Format: binding
Conditions: scrambled-peptide counterscreen

COUNTERSCREEN Efficacy (%)	SMILES
-33	CC(=O)N1CCN(c2ccc(OCc3nn(C)c(C)c3-c3cccc4c(CCCOc5cccc6ccccc56)c(C(=O)O)n(Cc5cccnc5)c34)cc2)CC1 [NCGC00347174-02]
95	Cc1c(C)n(Cc2ccc(-c3ccccc3C(=O)O)cc2)c2ccc(C(=O)N[C@@H](C)c3ccc([N+](=O)[O-])cc3)cc12 [NCGC00347955-04]

Same assay, conditions: scrambled-peptide counterscreen, YES/NO call

COUNTERSCREEN Confirm?	SMILES
YES	CC(=O)N1CCN(c2ccc(OCc3nn(C)c(C)c3-c3cccc4c(CCCOc5cccc6ccccc56)c(C(=O)O)n(Cc5cccnc5)c34)cc2)CC1 [NCGC00347174-02]
YES	Cc1c(C)n(Cc2ccc(-c3ccccc3C(=O)O)cc2)c2ccc(C(=O)N[C@@H](C)c3ccc([N+](=O)[O-])cc3)cc12 [NCGC00347955-04]

Same assay, conditions: scrambled-peptide counterscreen, qHTS curve class

COUNTERSCREEN Curve Class	SMILES
4	CC(=O)N1CCN(c2ccc(OCc3nn(C)c(C)c3-c3cccc4c(CCCOc5cccc6ccccc56)c(C(=O)O)n(Cc5cccnc5)c34)cc2)CC1 [NCGC00347174-02]
3	Cc1c(C)n(Cc2ccc(-c3ccccc3C(=O)O)cc2)c2ccc(C(=O)N[C@@H](C)c3ccc([N+](=O)[O-])cc3)cc12 [NCGC00347955-04]

Same assay, conditions: scrambled-peptide counterscreen; read-out: COUNTERSCREEN IC50

IC50 [µM]	SMILES
89.1	Cc1c(C)n(Cc2ccc(-c3ccccc3C(=O)O)cc2)c2ccc(C(=O)N[C@@H](C)c3ccc([N+](=O)[O-])cc3)cc12 [NCGC00347955-04]
